In patent US12084445B2, “Broad-spectrum carbapenems” (VenatoRx Pharmaceuticals, Inc., priority 2018, dated 2024):

Columns and labels:
Format in all cases: cell-based
[1] = test system: E. coli ATCC 25922 (wild-type/QC strain); assay: broth microdilution MIC assay, E. coli ATCC 25922; conditions: Escherichia coli, ATCC25922; Table 3; E. coli 25922; read-out: E. coli 25922 MIC
Experimental: (§1) To determine the ability of test compounds to potentiate the inhibition of the growth of bacterial strains, classic cell-based broth microdilution MIC assays were employed. MIC assays are performed according to CLSI methods except where otherwise noted (CLSI, 2011 and CLSI, 2009). The reference strains S. aureus ATCC 29213 (methicillin sensitive), S. aureus ATCC 33591 (methicillin-resistant), E. coli ATCC 25922 (wild-type/QC strain), P. aeruginosa ATCC 27853 (wild-type/QC strain), and the clinical isolate P. aeruginosa PA 8 were used to determine the ability of the exemplary carbapenem compounds to inhibit bacterial growth. An expanded panel of methicillin resistance S. aureus (MRSA) and Pseudomonas was also used to determine the ability of exemplary carbapenem compounds to inhibit bacterial growth across a broader representation of those species. To determine activity in MRSA and in addition to S. aureus ATCC 33591, S. aureus USA 300, USA 400 and USA 600, some of the most common clones found to cause human infection, were also used. To further gauge the impact on the carbapenem compounds due to various resistance mechanisms in Pseudomonas, the following strains were included: P. aeruginosa 35151 (hyper-permeable strain), P. aeruginosa AmexAB-OprM (an efflux pump knockout), and P. aeruginosa PA 3 (a clinical isolate of reduced carbapenem susceptibility). Briefly, cryo-preserved bacterial cultures of clinical strains are streaked for isolation on appropriate agar medium, in this case Mueller Hinton II agar. Following incubation to allow formation of colonies, these plates are sealed with parafilm and stored refrigerated for up to two weeks. For preparation of assay inocula and to ensure low variability, at least 5 colonies are picked from the agar plates with an inoculating loop and aseptically transferred to a culture tube containing 3 mL of Mueller-Hinton Broth (supplemented with divalent cations to required levels based on Manufacturers' specification). The broth culture is grown for 3-5 hours at 37° C. with shaking at 200 rpm. Meanwhile, 2-fold serial dilutions of test compounds are conducted in a 96 well plate with a final volume of 75 μL per well at 2-fold the final desired concentration. After the dilution plates are set up the growing cultures are then diluted in a cuvette containing MH II broth and the optical density is measured at 600 nm. Inocula are diluted such that 75 μL of this culture in Mueller-Hinton Broth results in a starting bacterial concentration of 5×10^5 CFU/mL when added to the dilution plates. The plates are incubated 16-20 hours at 37° C. The MIC is read visually as the lowest concentration well with no bacterial growth.
(§2) Representative results are shown in Tables 3, 4, and 5 where A represents an MIC>32 μg/mL, B represents an MIC between 8 and 32 μg/mL inclusive, C represents an MIC between 1 and 4 μg/mL inclusive, and D represents an MIC of <1 μg/mL. NT=Not Tested.

[2] = test system: S. aureus ATCC 33591 (methicillin-resistant); assay: broth microdilution MIC assay, S. aureus ATCC 33591; conditions: Staphylococcus aureus, ATCC 33591 / MRSA; Table 3; S. aureus 33591 (MRSA); read-out: S. aureus 33591 (MRSA) MIC
Experimental: as §1, §2

[3] = test system: clinical isolate P. aeruginosa PA 8; assay: broth microdilution MIC assay, P. aeruginosa PA 8; conditions: Pseudomonas aeruginosa; Table 3; P. aeruginosa PA8
Experimental: as §1, §2

[4] = test system: P. aeruginosa ATCC 27853 (wild-type/QC strain); assay: broth microdilution MIC assay, P. aeruginosa ATCC 27853; conditions: Pseudomonas aeruginosa, ATCC27853; Table 3; P. aeruginosa 27853; read-out: P. aeruginosa 27853 MIC
Experimental: as §1, §2

SMILES	MIC [1]	MIC [2]	MIC [3]	MIC [4]
C[C@@H](O)[C@H]1C(=O)N2C(C(=O)O)=C(S[C@@H]3CCN(C4CCC(NCCCB(O)O)CC4)C3)[C@H](C)[C@H]12 (stereo partly drawn) [Example 3, (4R,5S,6S)-3-(((R)-1-(4-((3-boronopropyl)amino)cyclohexyl)pyrrolidin-3-yl)thio)-6-((R)-1-hydroxyethyl)-4-methyl-7-oxo-1-azabicyclo[3.2.0]hept-2-ene-2-carboxylic acid]	< 1 µg/mL	8 to 32 µg/mL	8 to 32 µg/mL	8 to 32 µg/mL
C[C@@H](O)[C@H]1C(=O)N2C(C(=O)O)=C(S[C@@H]3CCN(C[C@H]4CC[C@H](CN)CC4)C3)[C@H](C)[C@H]12 [Example 17, (4R,5S,6S)-3-(((R)-1-(((1r,4R)-4-(aminomethyl)cyclohexyl)methyl)pyrrolidin-3-yl)thio)-6-((R)-1-hydroxyethyl)-4-methyl-7-oxo-1-azabicyclo[3.2.0]hept-2-ene-2-carboxylic acid]	< 1 µg/mL	8 to 32 µg/mL	1 to 4 µg/mL	1 to 4 µg/mL
CNC[C@H]1CC[C@H](CN2CC[C@@H](SC3=C(C(=O)O)N4C(=O)[C@H]([C@@H](C)O)[C@H]4[C@H]3C)C2)CC1 [Example 18, (4R,5S,6S)-6-((R)-1-hydroxyethyl)-4-methyl-3-(((R)-1-(((1r,4R)-4-((methylamino)methyl)cyclohexyl)methyl)pyrrolidin-3-yl)thio)-7-oxo-1-azabicyclo[3.2.0]hept-2-ene-2-carboxylic acid]	< 1 µg/mL	8 to 32 µg/mL	1 to 4 µg/mL	1 to 4 µg/mL
C[C@@H](O)[C@H]1C(=O)N2C(C(=O)O)=C(S[C@@H]3CCN(CCN4CCNCC4)C3)[C@H](C)[C@H]12 [Example 20, (4R,5S,6S)-6-((R)-1-hydroxyethyl)-4-methyl-7-oxo-3-(((R)-1-(2-(piperazin-1-yl)ethyl)pyrrolidin-3-yl)thio)-1-azabicyclo[3.2.0]hept-2-ene-2-carboxylic acid]	< 1 µg/mL	8 to 32 µg/mL	1 to 4 µg/mL	1 to 4 µg/mL
CN[C@H]1CC[C@H](CN2CC[C@@H](SC3=C(C(=O)O)N4C(=O)[C@H]([C@@H](C)O)[C@H]4[C@H]3C)C2)CC1 [Example 21, (4R,5S,6S)-6-((R)-1-hydroxyethyl)-4-methyl-3-(((R)-1-(((1r,4R)-4-(methylamino)cyclohexyl)methyl)pyrrolidin-3-yl)thio)-7-oxo-1-azabicyclo[3.2.0]hept-2-ene-2-carboxylic acid]	< 1 µg/mL	8 to 32 µg/mL	1 to 4 µg/mL	1 to 4 µg/mL
C[C@@H](O)[C@H]1C(=O)N2C(C(=O)O)=C(S[C@@H]3CCN([C@H]4CC[C@@H](N)CC4)C3)[C@H](C)[C@H]12 [Example 23, (4R,5S,6S)-3-(((R)-1-((1r,4R)-4-aminocyclohexyl)pyrrolidin-3-yl)thio)-6-((R)-1-hydroxyethyl)-4-methyl-7-oxo-1-azabicyclo[3.2.0]hept-2-ene-2-carboxylic acid]	< 1 µg/mL	8 to 32 µg/mL	1 to 4 µg/mL	1 to 4 µg/mL
CC(C1CCNCC1)N1CC[C@@H](SC2=C(C(=O)O)N3C(=O)[C@H]([C@@H](C)O)[C@H]3[C@H]2C)C1 (stereo partly drawn) [Example 25, (4R,5S,6S)-6-((R)-1-hydroxyethyl)-4-methyl-7-oxo-3-(((3R)-1-(1-(piperidin-4-yl)ethyl)pyrrolidin-3-yl)thio)-1-azabicyclo[3.2.0]hept-2-ene-2-carboxylic acid]	< 1 µg/mL	8 to 32 µg/mL	1 to 4 µg/mL	8 to 32 µg/mL
C[C@@H](O)[C@H]1C(=O)N2C(C(=O)O)=C(S[C@@H]3CCN(CC4CCN(CCN)CC4)C3)[C@H](C)[C@H]12 [Example 26, (4R,5S,6S)-3-(((R)-1-((1-(2-aminoethyl)piperidin-4-yl)methyl)pyrrolidin-3-yl)thio)-6-((R)-1-hydroxyethyl)-4-methyl-7-oxo-1-azabicyclo[3.2.0]hept-2-ene-2-carboxylic acid]	< 1 µg/mL	> 32 µg/mL	1 to 4 µg/mL	1 to 4 µg/mL
C[C@@H](O)[C@H]1C(=O)N2C(C(=O)O)=C(S[C@@H]3CCN(C4CCN(CCN)CC4)C3)[C@H](C)[C@H]12 [Example 27, (4R,5S,6S)-3-(((R)-1-(1-(2-aminoethyl)piperidin-4-yl)pyrrolidin-3-yl)thio)-6-((R)-1-hydroxyethyl)-4-methyl-7-oxo-1-azabicyclo[3.2.0]hept-2-ene-2-carboxylic acid]	< 1 µg/mL	8 to 32 µg/mL	1 to 4 µg/mL	1 to 4 µg/mL
CC1CC(CN2CC[C@@H](SC3=C(C(=O)O)N4C(=O)[C@H]([C@@H](C)O)[C@H]4[C@H]3C)C2)CCN1 (stereo partly drawn) [Example 28, (4R,5S,6S)-6-((R)-1-hydroxyethyl)-4-methyl-3-(((3R)-1-((2-methylpiperidin-4-yl)methyl)pyrrolidin-3-yl)thio)-7-oxo-1-azabicyclo[3.2.0]hept-2-ene-2-carboxylic acid]	< 1 µg/mL	8 to 32 µg/mL	1 to 4 µg/mL	8 to 32 µg/mL
CNCc1ccc(CN2CC[C@@H](SC3=C(C(=O)O)N4C(=O)[C@H]([C@@H](C)O)[C@H]4[C@H]3C)C2)cn1 [Example 29, (4R,5S,6S)-6-((R)-1-hydroxyethyl)-4-methyl-3-(((R)-1-((6-((methylamino)methyl)pyridin-3-yl)methyl)pyrrolidin-3-yl)thio)-7-oxo-1-azabicyclo[3.2.0]hept-2-ene-2-carboxylic acid]	< 1 µg/mL	8 to 32 µg/mL	1 to 4 µg/mL	8 to 32 µg/mL
C[C@@H](O)[C@H]1C(=O)N2C(C(=O)O)=C(S[C@@H]3CCN(CC4CCNC(CN)C4)C3)[C@H](C)[C@H]12 (stereo partly drawn) [Example 30, (4R,5S,6S)-3-(((3R)-1-((2-(aminomethyl)piperidin-4-yl)methyl)pyrrolidin-3-yl)thio)-6-((R)-1-hydroxyethyl)-4-methyl-7-oxo-1-azabicyclo[3.2.0]hept-2-ene-2-carboxylic acid]	< 1 µg/mL	8 to 32 µg/mL	1 to 4 µg/mL	8 to 32 µg/mL
C[C@@H](O)[C@H]1C(=O)N2C(C(=O)O)=C(S[C@@H]3CCN(Cc4ccc(CN)c(CN)c4)C3)[C@H](C)[C@H]12 [Example 31, (4R,5S,6S)-3-(((R)-1-(3,4-bis(aminomethyl)benzyl)pyrrolidin-3-yl)thio)-6-((R)-1-hydroxyethyl)-4-methyl-7-oxo-1-azabicyclo[3.2.0]hept-2-ene-2-carboxylic acid]	< 1 µg/mL	1 to 4 µg/mL	8 to 32 µg/mL	8 to 32 µg/mL
C[C@@H](O)[C@H]1C(=O)N2C(C(=O)O)=C(S[C@@H]3CCN(CC4CNCCN4S(C)(=O)=O)C3)[C@H](C)[C@H]12 (stereo partly drawn) [Example 32, (4R,5S,6S)-6-((R)-1-hydroxyethyl)-4-methyl-3-(((3R)-1-((1-(methylsulfonyl)piperazin-2-yl)methyl)pyrrolidin-3-yl)thio)-7-oxo-1-azabicyclo[3.2.0]hept-2-ene-2-carboxylic acid]	8 to 32 µg/mL	8 to 32 µg/mL	8 to 32 µg/mL	8 to 32 µg/mL
C[C@@H](O)[C@H]1C(=O)N2C(C(=O)[O-])=C(S[C@@H]3CC[N+](C)(CC4CCNCC4)C3)[C@H](C)[C@H]12 (stereo partly drawn) [Example 33, (4R,5S,6S)-6-((R)-1-hydroxyethyl)-4-methyl-3-(((3R)-1-methyl-1-(piperidin-4-ylmethyl)pyrrolidin-1-ium-3-yl)thio)-7-oxo-1-azabicyclo[3.2.0]hept-2-ene-2-carboxylate]	< 1 µg/mL	8 to 32 µg/mL	1 to 4 µg/mL	1 to 4 µg/mL
